Experimental data from paper PMC6053381, “Novel 2-phenyloxypyrimidine derivative induces apoptosis and autophagy via inhibiting PI3K pathway and activating MAPK/ERK signaling in hepatocellular carcinoma cells” (Scientific Reports, 2018).

Experiments:
PDGFRα = PDGFRα (Homo sapiens, UniProt P16234); test: PDGFR kinase assay, Caliper microfluidic mobility shift; format: biochemical
Description: (§1) In vitro inhibitory activities of all compounds at 1 μM against PDGFRα and PDGFRβ were evaluated using Caliper microfluidic mobility shift technology. […] At the same concentration, only E5 inhibited greater than 50% of PDGFRβ activity (Fig. 2B).
(§2) PDGFR kinase activity was measured using Caliper microfluidic mobility shift technology. Briefly, 2 μL compound solution (25 μM) in 25% DMSO per well were added into the 384 well microtiter plates. Then, 10 μL per well of enzyme solution (100 mM HEPES, 10 mM MgCl2, Brij35 (30%) 100 μL, 1 mM DTT, 20 ng enzyme) was added. After a brief centrifugation at 1,000 rpm, the kinase reactions were started by addition of 38 μL per well of peptide/ATP-solution (40 μM ATP, 6.5 μM peptide 5′-FAM-KKKKEEIYFFF-NH2, Tris-HCl buffer, pH 7.0) incubated at 30 °C for 60 min and stopped by the addition of 20 μL 35 mM EDTA per well. The electrophoretic separation of the phosphorylated and non-phosphorylated peptides was then carried out on LabChip EZ Reader II (Caliper Life Sciences). All other kinase reactions were carried out as previously reported using the Kinase-Glo Plus or ADP-Glo assay. Kinase inhibition rates were calculated per manufacturer’s instructions.

PDGFRβ = PDGFRβ (Homo sapiens, UniProt P09619); test: as above; format: biochemical; conditions: averages of two separate experiments
Description: as §1, §2

BEL7404 = test: CellTiter-Glo luminescent cell viability assay; format: cell-based; conditions: Homo sapiens, BEL-7404, 120 h incubation, read-out: Anti-proliferative activity IC50 BEL7404
From the text: (§3) The in vitro antitumor activity of all compounds was screened against six HCC cell lines by CellTiter-Glo luminescent cell viability assay as described earlier. […] After a comprehensive assessment of PDGFR inhibition, cellular activity against HCC cells as well as potential druggability, E5 was chosen to investigate its kinase profiling, antitumor activity and molecular mechanism in the following study. […]
(§4) authenticated by using short tandem repeat (STR) matching analysis. No mycoplasma contamination was detected.
(§5) CellTiter-Glo luminescent cell viability assay
(§6) For experiments hepatocellular carcinoma cells were seeded at 4000 cells per well in 96-well plates. After overnight incubation, solution of compounds in DMSO at various concentrations were added to the cells and further incubated for 120 h. Cell viability was measured with the CellTiter-Glo Luminescent Cell Viability Assay (Promega) according to the manufacturer’s instructions. Luminescence was measured using an EnVision Multilabel Plate Reader (Perkin-Elmer). The cytotoxicity of the compounds was expressed as the percent age of luminescence relative to that of untreated cells . The concentration of compound producing 50% of cell proliferation (IC50) was calculated by nonlinear regression analysis of the response-concentration (log) curve, using the Graph-Pad Prism program package (Graph Pad Software; San Diego, CA). Results are expressed as the means of two […] experiments

Hep3B = test: CellTiter-Glo luminescent cell viability assay; format: cell-based; conditions: Homo sapiens, Hep3B, 120 h incubation, read-out: Anti-proliferative activity IC50 Hep3B
From the text: as §3, §4, §5, §6

MHCC97-L = test: CellTiter-Glo luminescent cell viability assay; format: cell-based; conditions: MHCC97L, 120 h incubation, read-out: Anti-proliferative activity IC50 MHCC97-L
From the text: as §3, §4, §5, §6

QGY-7703 = test: CellTiter-Glo luminescent cell viability assay; format: cell-based; conditions: Homo sapiens, QGY-7703, 120 h incubation, read-out: Anti-proliferative activity IC50 QGY-7703
From the text: as §3, §4, §5, §6

SMMC-7721 = test: CellTiter-Glo luminescent cell viability assay; format: cell-based; conditions: Homo sapiens, SMMC-7721, 120 h incubation, read-out: Anti-proliferative activity IC50 SMMC-7721
From the text: as §3, §4, §5, §6

SNU368 = test: CellTiter-Glo luminescent cell viability assay; format: cell-based; conditions: 120 h incubation, read-out: Anti-proliferative activity IC50 SNU368
From the text: as §3, §4, §5, §6

Bel7404 cells [1] = test: MTT cell viability assay; format: cell-based; conditions: Homo sapiens
Description: (§7) To reconfirm the biological activity, we chose the most sensitive cell line Bel7404 from cellular assay and the widely used and the most characterized cell line HepG2 to examine the effects of E5 on cell proliferation by MTT assay. […] Given that cell cycle arrest plays a significant role in inhibiting cancer cell growth, we subsequently examined the effects of E5 on cell cycle distribution of Bel7404 and HepG2 cells.
(§8) Cell viability was measured by methyl thiazolyl tetrazolium (MTT) assay. Cells were seeded in 96-well plate at a density of 1 × 10^4 cells/well. After overnight incubation, solution of E5 in DMSO with incremental concentrations (0–30 μM) were added to the cells and further incubated for 3 days. During this period, three wells were selected from each group of cells every day for the MTT (50 μg/well) assay. After the cells had been incubated at 37 °C for 4 h, the reaction was stopped by adding 150 μL/well of DMSO, and incubating for 10 min. The absorbance was measured at a wavelength of 490 nm by a Microplate Reader (BioTek, USA).

HepG2 cells [2] = test: MTT cell viability assay; format: cell-based; conditions: Homo sapiens
Description: as §7, §8

Bel7404 cells [3] = test: Colony formation assay; format: cell-based; conditions: 0–20 μM, 24 h treatment, two weeks culture
Description: (§9) Cells (300/well) were seeded in 24-well plates and incubated overnight in a humidified atmosphere of 5% CO2 at 37 °C. Incremental concentrations of E5 (0–20 μM) were then added, and the medium was replaced with fresh culture medium containing 10% FBS after 24 h. After two weeks of culture, colonies were fixed with methanol, stained with 1% crystal violet and colonies containing more than 50 cells were counted.

HepG2 cells [4] = test: Colony formation assay; format: cell-based; conditions: 0–20 μM, 24 h treatment, two weeks culture
Description: as §9

Bel7404 cells [5] = test: Cell cycle distribution by flow cytometry (PI); format: cell-based; conditions: 24 h treatment
Description: (§10) Cells were incubated with E5 for 24 h, after which cells were washed, stained and subjected to flow cytometry analysis. The cell cycle was analyzed by staining with propidium iodide (PI), and the extent of cell death/apoptosis was evaluated by double staining with annexin V-FITC and PI. The fluorescence was measured with a FACScan flow cytometer (Becton Dickinson, USA).

HepG2 cells [6] = test: Cell cycle distribution by flow cytometry (PI); format: cell-based; conditions: 24 h treatment
Description: as §10

PDGFRβ, sequence (P09619 33-1106): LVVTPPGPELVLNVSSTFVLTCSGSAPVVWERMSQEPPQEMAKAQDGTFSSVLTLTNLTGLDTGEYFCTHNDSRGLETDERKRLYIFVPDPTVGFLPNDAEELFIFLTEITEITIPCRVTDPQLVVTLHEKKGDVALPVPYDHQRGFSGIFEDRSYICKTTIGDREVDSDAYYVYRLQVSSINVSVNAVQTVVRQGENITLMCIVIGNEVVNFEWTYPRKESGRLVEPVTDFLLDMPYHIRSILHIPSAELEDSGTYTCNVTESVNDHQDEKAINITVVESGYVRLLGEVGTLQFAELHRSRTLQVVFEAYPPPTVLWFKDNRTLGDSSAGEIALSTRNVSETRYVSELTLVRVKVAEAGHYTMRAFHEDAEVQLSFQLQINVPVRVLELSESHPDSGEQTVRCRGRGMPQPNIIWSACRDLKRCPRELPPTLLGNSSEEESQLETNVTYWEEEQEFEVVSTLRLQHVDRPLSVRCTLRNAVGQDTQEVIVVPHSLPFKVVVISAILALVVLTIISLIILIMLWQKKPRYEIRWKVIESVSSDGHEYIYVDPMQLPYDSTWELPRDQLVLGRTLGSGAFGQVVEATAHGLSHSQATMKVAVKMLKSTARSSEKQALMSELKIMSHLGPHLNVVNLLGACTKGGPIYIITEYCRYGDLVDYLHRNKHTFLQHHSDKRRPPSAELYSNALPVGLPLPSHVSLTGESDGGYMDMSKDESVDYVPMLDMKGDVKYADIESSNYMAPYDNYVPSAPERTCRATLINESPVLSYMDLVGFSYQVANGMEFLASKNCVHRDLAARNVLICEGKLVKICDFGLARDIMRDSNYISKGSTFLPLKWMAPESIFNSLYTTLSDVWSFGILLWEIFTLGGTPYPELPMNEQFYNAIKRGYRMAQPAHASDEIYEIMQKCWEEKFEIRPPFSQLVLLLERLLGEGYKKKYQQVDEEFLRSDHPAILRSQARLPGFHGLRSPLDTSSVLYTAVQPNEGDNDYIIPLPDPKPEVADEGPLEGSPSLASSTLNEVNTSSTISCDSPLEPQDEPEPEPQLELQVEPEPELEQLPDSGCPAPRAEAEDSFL
PDGFRα, sequence (P16234 24-1089): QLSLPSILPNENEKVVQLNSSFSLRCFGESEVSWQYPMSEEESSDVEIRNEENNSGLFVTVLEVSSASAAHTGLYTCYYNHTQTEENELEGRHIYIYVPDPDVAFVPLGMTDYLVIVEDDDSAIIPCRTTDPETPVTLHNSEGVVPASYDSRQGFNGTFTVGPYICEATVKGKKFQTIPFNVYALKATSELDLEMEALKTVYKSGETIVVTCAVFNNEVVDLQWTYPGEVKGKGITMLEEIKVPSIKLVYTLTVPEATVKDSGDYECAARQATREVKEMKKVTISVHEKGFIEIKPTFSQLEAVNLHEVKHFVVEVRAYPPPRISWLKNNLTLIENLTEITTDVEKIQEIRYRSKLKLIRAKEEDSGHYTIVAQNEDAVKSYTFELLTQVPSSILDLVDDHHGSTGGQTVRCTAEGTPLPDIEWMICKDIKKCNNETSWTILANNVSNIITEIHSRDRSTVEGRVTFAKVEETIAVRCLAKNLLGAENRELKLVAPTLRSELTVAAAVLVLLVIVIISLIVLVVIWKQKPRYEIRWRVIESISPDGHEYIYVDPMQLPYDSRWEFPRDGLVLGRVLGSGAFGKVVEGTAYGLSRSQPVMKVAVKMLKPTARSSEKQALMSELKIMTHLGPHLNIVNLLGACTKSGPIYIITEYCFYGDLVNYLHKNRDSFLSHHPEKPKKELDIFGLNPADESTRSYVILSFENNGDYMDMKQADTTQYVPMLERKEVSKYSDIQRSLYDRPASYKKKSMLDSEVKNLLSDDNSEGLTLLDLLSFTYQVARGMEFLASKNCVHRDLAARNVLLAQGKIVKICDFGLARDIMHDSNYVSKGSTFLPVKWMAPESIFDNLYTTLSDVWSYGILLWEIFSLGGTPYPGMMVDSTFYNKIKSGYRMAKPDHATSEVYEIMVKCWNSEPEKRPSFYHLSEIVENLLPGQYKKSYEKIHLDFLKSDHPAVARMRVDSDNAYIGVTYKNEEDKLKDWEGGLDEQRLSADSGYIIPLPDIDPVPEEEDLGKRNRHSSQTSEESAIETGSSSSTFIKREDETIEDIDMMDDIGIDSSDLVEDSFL

With Cc1ccc(NC(=O)c2ccc(CN3CCN(C)CC3)cc2)cc1Oc1nccc(-c2cc3ccccc3o2)n1 [E5, N-(3-((4-(benzofuran-2-yl)pyrimidin-2-yl)oxy)-4-methylphenyl)-4-((4-methylpiperazin-1-yl)methyl)benzamide] the Selectivity index (PDGFRα; IC50 (PDGFRβ)/ IC50 (PDGFRα)) was 2.32, the IC50 (PDGFRα; averages of two separate experiments) was 0.4 µM and the inhibition at 1 µM (PDGFRα; compound at 1 µM, averages of two separate experiments, read-out: Inhibition effect (%) PDGFRα) was over 85%. For the same molecule, the IC50 (PDGFRβ) was 0.93 µM, the “IC50 PDGFRβ” value (PDGFRβ) was “moderate inhibitory activity” and the inhibition at 1 µM (PDGFRβ; compound at 1 µM, read-out: Inhibition effect (%) PDGFRβ) was over 50%. The IC50 (BEL7404) was 0.8 µM, the IC50 (Hep3B) was 2.6 µM and the IC50 (MHCC97-L) was 10 µM. The IC50 (QGY-7703) was 15.1 µM, the IC50 (SMMC-7721) was 1 µM and the IC50 (SNU368) was 8.9 µM. It also gave an IC50 (Bel7404 cells [1]; BEL-7404, 24 h) of 18.2 ± 2.38 µM, an IC50 (Bel7404 cells [1]; BEL-7404, 48 h) of 9.68 ± 1.46 µM and an IC50 (Bel7404 cells [1]; BEL-7404, 72 h) of 6.62 ± 0.15 µM. For the same molecule, the IC50 (HepG2 cells [2]; HepG2, 24 h, 24 h) was 8.49 ± 0.82 µM, the IC50 (HepG2 cells [2]; HepG2, 48 h, 48 h) was 5.44 ± 0.23 µM and the IC50 (HepG2 cells [2]; HepG2, 72 h, 72 h) was 4.72 ± 0.96 µM. For the same molecule, the Effect on clonogenicity (Bel7404 cells [3]) was “significantly inhibited the clonogenicity”, the Effect on clonogenicity (HepG2 cells [4]) was “significantly inhibited the clonogenicity” and the “Effect on cell cycle distribution” value (Bel7404 cells [5]) was “elicited G2/M phase arrest in a dose-dependent manner”. For the same molecule, the “Effect on cell cycle distribution” value (HepG2 cells [6]) was “elicited G2/M phase arrest in a dose-dependent manner”.
